{
  "source": "patent US7488822B2",
  "about": "(Wyeth, priority 1999, dated 2009)",
  "key": {"[1]": {"test_system": "rat uterine decidualization", "test": "Rat decidualization assay", "format": "in vivo", "settings": "for Estimated average EC50 (mg/kg, s.c.): average for dose-response curves; for Estimated EC50 (mg/kg, s.c.): uterine wet weight; for Decidualization IC50: decrease in EC50 progesterone induced decidual response", "experimental": "The animals are treated once daily for seven days. […] Uteri are removed and trimmed of fat.\nBody weight: Mean total animal body weight (default-kg)\nDecidual response: [(D-C)/C]×100%"}, "T47D cells": {"test_system": "T47D cells", "test": "T47D cell proliferation assay (BrdU incorporation)", "format": "cell-based", "settings": "half-maximal decrease in trimegestone induced BrdU incorporation, individual studies, read-out: Estimated IC50", "experimental": "T47D cell proliferation assay • The objective of this assay is the determination of progestational and antiprogestational potency by using a cell proliferation assay in T47D cells. A compound's effect on DNA synthesis in T47D cells is measured. […] Growth medium: DMEM:F12 (1:1) (GIBCO, BRL) supplemented with 10% (v/v) fetal bovine serum (not heat-inactivated), 100 U/ml penicillin, […], and 2 mM GlutaMax (GIBCO, BRL). • b. Treatment medium: Minimum Essential Medium (MEM) (#51200-038GIBCO, BRL) phenol red-free supplemented with 0.5% charcoal stripped fetal bovine serum, 100 U/ml penicillin, […] streptomycin, and 2 mM GlutaMax (GIBCO, BRL). • c. Cell Culture • Stock T47 D cells are maintained in growth medium. For BrdU incorporation assay, cells are plated in 96-well plates (Falcon, Becton Dickinson Labware) at 10,000 cells/well in growth medium. […] Cell Proliferation Assay • At the end of BrdU labeling, the medium is removed and BrdU incorporation is measured using a cell proliferation ELISA kit (#RPN 250, Amersham Life Science) according to manufacturer's instructions. […] Then 25 μl of 1 M sulfuric acid is added to each well to stop color reaction and optical density is read in a plate reader at 450 nm within 5 min. • e. […] EC50 or IC50 values are calculated from the retransformed values. […]"}},
  "note": "Values joined by “and” are separate entries in the source; they are usually repeats but may differ in a detail not shown here. Equal entries are not always repeated.",
  "data": [
    {"smiles": "C#C[C@]1(O)CC[C@H]2[C@@H]3CCC4=CC(=O)CC[C@@H]4[C@H]3C(=C)C[C@@]21CC", "note": "[3-Ketodesogestrel]", "values": [
      {"measurement": "Estimated average EC50 (mg/kg, s.c.)", "setting": "[1]", "result": 0.10, "unit": "mg/kg"},
      {"measurement": "Estimated EC50 (mg/kg, s.c.)", "setting": "[1]; individual studies", "result": "0.10 mg/kg and 0.06 mg/kg and 0.11 mg/kg"}
    ]},
    {"smiles": "CC1(C)OC(=O)Nc2ccc(-c3coc(C#N)c3)cc21", "note": "[Compound 7, 4-(4,4-Dimethyl-2-oxo-1,4-dihydro-2H-benzo[d][1,3]oxazin-6-yl)-furan-2-carbonitrile]", "values": [
      {"measurement": "inhibition at 3 mg/kg", "setting": "[1]; @ 3 mg/kg, read-out: Decidualization, percentage inhibition at the dose specified", "result": 75, "unit": "%"}
    ]},
    {"smiles": "Cc1cc(C#N)sc1-c1ccc2c(c1)C1(CCCCC1)OC(=O)N2", "note": "[Compound 10, 5-(1,2-Dihydro-2-oxospiro[4H-3,1-benzoxazine-4,1-cyclohexan]-6-yl)-4-methyl-2-thiophenecabonitrile]", "values": [
      {"measurement": "Decidualization, percentage inhibition at the dose specified", "setting": "[1]; @ 10 mg/kg", "result": 50, "unit": "% @"}
    ]},
    {"smiles": "CC1(C)OC(=O)Nc2ccc(-c3cccc(Br)c3)cc21", "note": "[Compound 13, 6-(3-Bromo-phenyl)-4,4-dimethyl-1,4-dihydro-benzo[d][1,3]-oxazin-2-one]", "values": [
      {"measurement": "Decidualization IC50", "setting": "[1]", "result": 3, "unit": "mg/kg"}
    ]},
    {"smiles": "N#Cc1cc(F)cc(-c2ccc3c(c2)C(C2CC2)(C2CC2)OC(=O)N3)c1", "note": "[Compound 15, 3-(4,4-Dicyclopropyl-2-oxo-1,4-dihydro-2H-benzo[d][1,3]oxazin-6-yl)-5-fluoro-benzonitrile]", "values": [
      {"measurement": "Decidualization IC50", "setting": "[1]", "result": 3, "unit": "mg/kg"}
    ]},
    {"smiles": "CC1(C)OC(=O)Nc2ccc(-c3csc(C#N)c3)cc21", "note": "[Compound 17, 4-(4,4-Dimethyl-2-oxo-1,4-dihidro-2H-benzo[d][1,3]oxazin-6-yl)-thiophene-2-carbonitrile]", "values": [
      {"measurement": "Decidualization IC50", "setting": "[1]", "result": 2.3, "unit": "mg/kg"}
    ]},
    {"smiles": "Cc1cc(C#N)sc1-c1ccc2c(c1)C(C)(C)OC(=O)N2", "note": "[Compound 18, 5-(4,4-Dimethyl-2-oxo-1,4-dihydro-2H-benzo[d][1,3]oxazin-6-yl)-4-methyl-thiophene-2-carbonitrile]", "values": [
      {"measurement": "Decidualization IC50", "setting": "[1]", "result": 1.5, "unit": "mg/kg"}
    ]},
    {"smiles": "CC1(C)OC(=O)Nc2ccc(-c3cc(F)cc(C#N)c3)cc21", "note": "[Compound 19, 3-(4,4-Dimethyl-2-oxo-1,4-dihydro-2H-benzo[d][1,3]oxazin-6-yl)-5-fluorobenzonitrile]", "values": [
      {"measurement": "Decidualization IC50", "setting": "[1]", "result": 0.35, "unit": "mg/kg"}
    ]},
    {"smiles": "CC1(C)OC(=O)Nc2ccc(-c3ccc(F)c(Cl)c3)cc21", "note": "[Compound 20, 6-(3-Chloro-4-fluoro-phenyl)-4,4-dimethyl-1,4-dihydro-benzo[d][1,3]oxazin-2-one]", "values": [
      {"measurement": "Decidualization IC50", "setting": "[1]", "result": 1, "unit": "mg/kg"}
    ]},
    {"smiles": "CC1(C)OC(=O)Nc2ccc(-c3ccc(C#N)c(F)c3)cc21", "note": "[Example 114, 6-(4-Cyano-3-fluoro-phenyl)-4,4-dimethyl-1,4-dihydrobenzo[d][1,3]-oxazin-2-one]", "values": [
      {"measurement": "melting point", "result": "272 to 275", "unit": "°C"}
    ]},
    {"smiles": "CC1(C)OC(=O)Nc2ccc(-c3ccc(S(N)(=O)=O)s3)cc21", "note": "[Example 141, 5-(4,4Dimethyl-2-oxo-1,4-dihydro-2H-benzo[d][1,3]-oxazin-6-yl)-thiophene-2-sulfonamide]", "values": [
      {"measurement": "melting point", "result": "258 to 260", "unit": "°C"}
    ]},
    {"smiles": "C#C[C@]1(O)CC[C@H]2[C@@H]3CCC4=CC(=O)CC[C@@H]4[C@H]3CC[C@@]21CC", "note": "[Levonorgestrel]", "values": [
      {"measurement": "Estimated average EC50 (mg/kg, s.c.)", "setting": "[1]", "result": 0.10, "unit": "mg/kg"},
      {"measurement": "Estimated EC50 (mg/kg, s.c.)", "setting": "[1]; individual studies", "result": "0.08 mg/kg and 0.12 mg/kg and 0.09 mg/kg (2×)"}
    ]},
    {"smiles": "CC(=O)O[C@]1(C(C)=O)CC[C@H]2[C@@H]3C[C@H](C)C4=CC(=O)CC[C@]4(C)[C@H]3CC[C@@]21C", "note": "[MPA, medroxyprogesterone acetate]", "values": [
      {"measurement": "Estimated EC50 (mg/kg, s.c.)", "setting": "[1]; individual studies", "result": "0.42 mg/kg and 0.39 mg/kg (2×)"}
    ]},
    {"smiles": "CC(=O)[C@H]1CC[C@H]2[C@@H]3CCC4=CC(=O)CC[C@]4(C)[C@H]3CC[C@]12C", "note": "[Progesterone]", "values": [
      {"measurement": "Estimated EC50 (mg/kg, s.c.)", "setting": "[1]; individual studies", "result": 5.50, "unit": "mg/kg"}
    ]},
    {"smiles": "CC#C[C@]1(O)CC[C@H]2[C@@H]3CCC4=CC(=O)CCC4=C3[C@@H](c3ccc(N(C)C)cc3)C[C@@]21C", "note": "[RU486]", "values": [
      {"measurement": "Estimated IC50 (mg/kg, p.o.)", "setting": "[1]; p.o., EC50 dose of progesterone, individual studies", "result": "0.21 mg/kg and 0.14 mg/kg"},
      {"measurement": "IC50", "setting": "T47D cells", "result": "0.016 nM and 0.018 nM"}
    ]}
  ]
}
